Reference: article PMC5781198 (Influenza and Other Respiratory Viruses, 2013)
Entries after “also recorded” stand apart in the source; their conditions may differ.

Legend:
[1] = tested on: A/Santiago/14689/2011 NA (N325K); type: biochemical, Influenza A(H1N1)pdm09 virus
[2] = molecular target: B/Ontario/1256/2011 NA (G140R, N144K) (Influenza B virus, UniProt P27907, G140R/N143K); type: biochemical, Influenza B virus (Victoria)
[3] = molecular target: B/Guatemala/16/2011 NA (S244P) (Influenza B virus, UniProt P27907, S243P); type: biochemical, Influenza B virus (Victoria)
[4] = tested on: A/Alberta/RV1242/2011 NA (H275H/Y, D199D/N); type: biochemical, Influenza A(H1N1)pdm09 virus
[5] = molecular target: B/Dominican Republic/5506/2011 NA (H273Y) (Influenza B virus, UniProt P27907, H272Y); type: biochemical, Influenza B virus (Victoria)
[6] = molecular target: B/Ontario/006876/2011 NA (H273Y) (Influenza B virus, UniProt P27907, H272Y); type: biochemical, Influenza B virus (Yamagata)
[7] = tested on: A/Vietnam/108/2011 NA (F174V); type: biochemical, Influenza A(H1N1)pdm09 virus
[8] = tested on: A/Santiago/15706/2011 NA (G460S); type: biochemical, Influenza A(H1N1)pdm09 virus
[9] = tested on: A/Dominican Republic/5507/2011 NA (S247N); type: biochemical, Influenza A(H1N1)pdm09 virus
[10] = tested on: A/Puerto Rico/05/2011 NA (D199N); type: biochemical, Influenza A(H1N1)pdm09 virus
[11] = tested on: A/Bolivia/258/2011 NA (D199N); type: biochemical, Influenza A(H1N1)pdm09 virus
[12] = tested on: A/Bolivia/603/2011 NA (D151G); type: biochemical, Influenza A(H3N2) virus
[13] = tested on: B/Bangladesh/4013/2011 NA (A136S); type: biochemical, Influenza B virus (Victoria)
[14] = molecular target: B/Bangladesh/8008/2011 NA (I120V) (Influenza B virus, UniProt P27907, I119V); type: biochemical, Influenza B virus (Victoria)
[15] = molecular target: B/Kenya/9528/2011 NA (M403V) (Influenza B virus, UniProt P27907, M402V); type: biochemical, Influenza B virus (Victoria)
[16] = tested on: B/British Columbia/RV1383/2011 NA (T106N); type: biochemical, Influenza B virus (Yamagata)
[17] = tested on: B/Ontario/006876/2011 NA (H273Y); settings: cited from earlier work

SMILES: CC(=O)N[C@H]1[C@H]([C@H](O)[C@H](O)CO)OC(C(=O)O)=C[C@@H]1N=C(N)N [Zanamivir, zanamivir]
- susceptibility in words [1]: mildly reduced sensitivity
- susceptibility in words [2]: significantly reduced susceptibility
- susceptibility in words [3]: mild outlier

SMILES: CCC(CC)[C@H](NC(C)=O)[C@@H]1[C@H](O)[C@@H](C(=O)O)C[C@H]1N=C(N)N [Peramivir, peramivir]
- IC50 relative to isolate A/Puerto Rico/09/2011 (dominant H275Y) [4]: approximately threefold less; also recorded: three times less resistant
- susceptibility in words [1]: mildly reduced sensitivity
- fold difference in IC50 [5]: 12·43 (15) fold
- fold greater IC50 than the mean IC50 for the drug for all B viruses [5]: 16 fold
- fold difference in IC50 [2]: 210·68 (257) fold
- fold greater IC50 than the mean IC50 for the drug for all B viruses [2]: 277 fold
- susceptibility in words [2]: significantly reduced susceptibility
- fold difference in IC50 [6]: 33·49 (62) fold
- fold greater IC50 than the mean IC50 for the drug for all B viruses [6]: 44 fold
- fold difference in IC50 [7]: 0·06 (1) fold
- fold difference in IC50 [8]: 0·26 (4) fold
- fold difference in IC50 [9]: 0·15 (3) fold
- fold difference in IC50 [10]: 0·21 (4) fold
- fold difference in IC50 [11]: 0·09 (2) fold
- fold difference in IC50 [12]: 0·08 (1) fold
- fold difference in IC50 [3]: 0·60 (1) fold
- susceptibility in words [3]: sensitive
- fold difference in IC50 [13]: 4·77 (6) fold
- fold difference in IC50 [14]: 4·36 (5) fold
- fold difference in IC50 [15]: 3·59 (4) fold
- fold difference in IC50 [16]: 0·85 (2) fold
- susceptibility in words [17]: reduced susceptibility
